Columns and labels:
HCV IRES = assay: Ribosomal assembly assay on HCV IRES in RRL; format: biochemical, Hepatitis C Virus; settings: wild-type 32P-labelled HCV IRES RNA; 2 mM GMP-PNP or 20 mM cycloheximide
Protocol: ^32P-labelled wild type or mutant HCV IRES RNA (3 × 10^5 c.p.m.) was added to 25 μl of translation reaction containing 17.5 μl of rabbit reticulocyte lysate (RRL). The reactions were incubated at 30°C for 15 min and diluted to 150 μl with ice cold gradient buffer (20 mM Tris–HCl pH 7.5, 100 mM KCl, 3 mM MgCl2, 1 mM Dithiothreitol (DTT)) and overlaid in 5–30% sucrose gradient. The ribosomal complexes were separated by ultracentrifuge for 3 h at 30 000 rpm at 4°C in TH-641 rotor (Thermo Scientific). Fractions (330 μl) were manually collected from the top of the tube and radioactivity was measured in a liquid scintillation counter. To validate the peaks, in vitro translation was performed in presence of 2 mM 5′-guanylyl imidodiphosphate (GMP-PNP) or 20 mM of cycloheximide and peaks were resolved on sucrose gradient.
We confirmed the 48S and 80S peaks in the ribosome assembly profile by using GMPPNP and cycloheximide respectively. As expected GMPPNP and cycloheximide stalled translation at the 48S and 80S stages, respectively (Figure 3A).
Figure 3. Ribosome assembly on wild type and mutant HCV IRES. (A) Ribosome assembly on wild-type ^32P-labelled HCV IRES RNA in the presence of either cycloheximide or GMPPNP. […] Different fractions were collected and the radioactivity associated with each fraction was measured. […]

[1] = test system: global protein synthesis in Huh7 cells; assay: 35S-Methionine metabolic labelling; format: cell-based; settings: cycloheximide 100 μg/ml, positive control
Protocol: Forty-eight hours after transfection, medium was replaced with serum free DMEM lacking methionine and cysteine (Sigma) and incubated for 1 h. Then 100 μci of ^35S in vivo pro-twin label mix (BRIT) was added to each well and cells were labelled for 30 min. Cells treated with 100 μg/ml concentration of cycloheximide were taken as positive control for global translation shut down. After labelling the cells, media was removed and the cells were washed three times with ice-cold phosphate buffered saline (PBS). Cells were harvested and lysed in the 100 μl of RIPA buffer lacking SDS (50 mM Tris–HCl pH 7.4, 150 mM NaCl, 1 mM EDTA, 1% NP-40, 0.25% sodiumdeoxycholate) containing protease inhibitors (complete EDTA-free protease inhibitor, Roche). The protein concentration of the lysate was then estimated by Bradford assay. Twenty-five micrograms of protein from each sample was mixed with 0.1 mg BSA and ice-cold TCA was added to a final concentration of 20%. The samples were incubated for 30 min on ice and loaded on prewet (with 20% TCA) glass microfibre filters (Whatmann). The filters were washed with 1 ml of 20% TCA twice and once with 1 ml of 100% ethanol. The filters were then incubated overnight with 4 ml of scintillation liquid and counts were taken.
Figure 6. Role of RPS5 in HCV translation and replication. […] Huh7 cells were transfected with siNSP RNA or siRPS5 RNA. […]

Row | SMILES | stage at which translation is stalled (HCV IRES) [S] | reduction of protein levels (35S-methionine incorporation) [1] [%]
1 | C[C@@H]1C[C@@H]([C@H](O)CC2CC(=O)NC(=O)C2)C(=O)[C@@H](C)C1 [cycloheximide] | 80 | ~75
2 | Nc1nc2c(ncn2[C@@H]2O[C@H](COP(=O)(O)OP(=O)(O)NP(=O)(O)O)[C@@H](O)[C@H]2O)c(=O)[nH]1 [GMPPNP, 5′-guanylyl imidodiphosphate] | 48 | –

Source: article PMC4357715, “The beta hairpin structure within ribosomal protein S5 mediates interplay between domains II and IV and regulates HCV IRES function” (Nucleic Acids Research, 2015)
